Results as given in patent US20080161232A1, “C5a Receptor Antagonist” (JERINI AG, priority 2005, published 2008).
Starred links: 1 amine or outer side, 2 acyl side, 3 side chain; linkers in the order of their positions; H or OH if unused. Positions of bridges follow the written chain, without caps; N, C: chain ends. Non-standard residues stand in square brackets, D forms with d. Residues, ends and D or L forms follow the SMILES beside them. *: point of attachment. X1 = COC1O[C@H](C(=O)[*:2])[C@@H](O)[C@H](O)[C@H]1N[*:1]; Orn(2-imidazolinyl) = N[C@@H](CCCNC1=NCCN1)C(=O)O; Dip = N[C@H](C(=O)O)C(c1ccccc1)c1ccccc1; Bta = N[C@@H](Cc1csc2ccccc12)C(=O)O; Hydrocinnamoyl = O=C(CCc1ccccc1)*; 2Thi = N[C@@H](Cc1cccs1)C(=O)O; dCha = N[C@H](CC1CCCCC1)C(=O)O; Pip = O=C(O)[C@@H]1CCCCN1; Nle = CCCC[C@H](N)C(=O)O; Orn = NCCC[C@H](N)C(=O)O; Aze = O=C(O)[C@@H]1CCN1

Tests used:
human C5aR(CD88) [1] = target: T1, human C5aR(CD88) (Homo sapiens, UniProt P21730); assay: Determination of EC50-values in an enzyme release assay (agonistic activity); assay type: cell-based; conditions: for agonistic activity (in words): cellular assay, up to a concentration of at least 1430 nM; for EC50: agonistic activity, no C5a added, read-out: EC50
T1 construct: expressed in transfected cells; host or cells: rat basophilic leukemia cells (RBL)
T1 sequence (P21730 1-350): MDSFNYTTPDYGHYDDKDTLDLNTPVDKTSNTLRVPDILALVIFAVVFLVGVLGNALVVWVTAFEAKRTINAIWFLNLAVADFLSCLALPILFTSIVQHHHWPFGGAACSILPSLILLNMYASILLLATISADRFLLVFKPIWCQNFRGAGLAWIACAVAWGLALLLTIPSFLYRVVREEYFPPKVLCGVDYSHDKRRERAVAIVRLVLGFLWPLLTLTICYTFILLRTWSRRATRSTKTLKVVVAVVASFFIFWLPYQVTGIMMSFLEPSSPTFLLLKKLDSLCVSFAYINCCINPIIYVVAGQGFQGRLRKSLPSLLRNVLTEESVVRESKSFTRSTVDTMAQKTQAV
Description: The assay procedure was described by Kohl (Kohl 1997 The Anaphylatoxins. In: Dodds, A. W., Sim, R. B. (Eds.), Complement: A Practical Approach. Oxford, pp. 135-163). Basophilic leukemia cells from rats (RBL), which express the human C5aR(CD88), were cultivated in DMEM with 10% fetal bovine serum, 100 U/ml penicillin, 100 μg/ml streptomycin and 2 mM glutamine (all components of the media from Biochrome, Berlin) to confluence at 37° C. and 10% CO2. The following specifications refer to single cell culture flask having a surface of 75 cm^2. Medium was decanted from cells. Cells were washed with 10 ml PBS (Dulbecco's PBS, Biochrome) and subsequently overlayed with 3 ml Cell Dissociation Solution (CDS, Sigma). Cells were incubated for 1 min at room temperature. Subsequently, CDS was removed and the cells were further incubated for 10-15 min at 37° C. for dissociation. In the assay, 20 μl of the solution containing the compound to be tested were used. This solution should not contain more than 2.8% DMSO. For the dilution process, the compounds were diluted in ⅓ or ½ steps. To 20 μl compound solution 75 μl of the RBL-cells were added, which were treated as follows: after dissociation cells were detached and warmed at 37° C. in 10 ml HAG-CM (20 mM HEPES; 125 mM NaCl, 5 mM KCl, 1 mM CaCl2, 1 mM MgCl2, 0,5 mM Glucose, 0,25% BSA. HEPES-preparation: 2.3 g/l HEPES-salt +2.66 g/l HEPES acid). Cells were counted and centrifuged (200×g, 10 min). The cell pellet was resuspended in preheated HAG-CM (i.e. Hepes-buffer NaCl-glucose-solution with calcium and magnesium), and the cell density was adjusted to 2×10^6 cells/ml. The cells were incubated at 37° C. for 5 min. Per ml cell suspension 27 μl of a cytochalasin B-solution were added (100 μg/ml in DMSO, Sigma). The cells were incubated for further 3 min at 37° C. 75 μl of the cell suspension were added to 20 μl compound solution leading to a volume of 95 μl per well. After incubation of the cells for 10 min at 37° C. 10 μl hrC5a (10.5 nM in HAG-CM, Sigma) per well were added. The cells were incubated for additional 5 min at 37° C. The mtp was then transferred to ice and centrifuged for 3 min at 4° C. with 1200×g. 75 μl of the supernatant were added to 100 μl substrate-solution (2.7 mg/ml p-nitrophenyl-N-acetyl-β-D-glucosaminide (Sigma) in 42.5 mM Na-acetate pH 4.5). The mtp was incubated for further 60 min at 37° C. 75 μl 0.4 M glycine pH 10.4 were added per well. The mtp was transferred into a reader and the absorption at 405 nm was measured. IC50-values were obtained following the equation; y=((A-D)/(1+(x/C)^B))+D.
Determination of EC50-Values in an Enzyme Release Assay
The determination of EC50-values was performed according to the procedure given in example II, with the exception that 30 μl of the test compound need to be mixed with 75 μl of the cell suspension mentioned in example 11. Neither preincubation nor addition of C5a for stimulation of enzyme release is needed.

human C5aR(CD88) [2] = target: T1, human C5aR(CD88); assay: Determination of the IC50 value in an enzyme release assay (functional assay, antagonistic activity); assay type: cell-based; conditions: for IC50: antagonistic activity, IC50 group in enzyme release assay, RBL cells expressing human C5aR(CD88), read-out: activity (group); for inhibitory activity (in words): functional assay of example 11, noteworthy = IC50 less than 200 nM
[3] = Solubility determination for selected C5aR-antagonists; assay type: physicochemical; conditions: for Solubility in 20 mM HEPES pH 7.4 (% of 200 μM): 20 mM HEPES pH 7.4, 24 h at RT
Description: Solubility Determination for Selected C5aR-Antagonists
[…] The undissolved part was removed by centrifugation after 24 h. The UV-absorption of the supernatant was measured and compared to a reference solution of the compound in 60% MeOH.

Row | Compound | agonistic activity (in words) (human C5aR(CD88) [1]) | IC50 (human C5aR(CD88) [2]) | inhibitory activity (in words) (human C5aR(CD88) [2]) | Solubility in 20 mM HEPES pH 7.4 (% of 200 μM) [3] | EC50 (human C5aR(CD88) [1]) | solubility in aqueous HEPES buffer (pH 7.4) [3] | inhibitory activity (in words) (human C5aR(CD88) [2]; listed as Ac-Phe-[Orn-Pro-cha-Trp-Nle])
1 | CC(=O)N[C@@H](Cc1ccccc1)C(=O)N[C@@H](CCCNC1=NCCN1)C(=O)N1CCC[C@H]1C(=O)N[C@H](CC1CCCCC1)C(=O)N[C@@H](Cc1csc2ccccc12)C(=O)N[C@@H](Cc1ccccc1)C(N)=O [Compound 150, Ac-Phe-Arg(CH2—CH2)-Pro-cha-Bta-Phe-NH2] (Ac-F[Orn(2-imidazolinyl)]P[dCha][Bta]F-NH2) | pure antagonists | 5 to 10 nM | noteworthy inhibitory activity |  |  |  | 
2 | CC(=O)N[C@@H](Cc1cccs1)C(=O)N[C@@H](CCCN)C(=O)N1CCCC[C@H]1C(=O)N[C@H](CC1CCCCC1)C(=O)N[C@@H](Cc1csc2ccccc12)C(=O)N[C@@H](Cc1ccccc1)C(N)=O [Compound 67, Ac-Thi-Orn-Pip-cha-Bta-Phe-NH2] (Ac-[2Thi][Orn][Pip][dCha][Bta]F-NH2) | pure antagonists | 20 to 50 nM |  |  | > 100000 nM |  | 
3 | CC(=O)N[C@H](C(=O)N[C@@H](CCCN)C(=O)N1CCC[C@H]1C(=O)N[C@H](CC1CCCCC1)C(=O)N[C@@H](Cc1c[nH]c2ccccc12)C(=O)N[C@@H](Cc1ccccc1)C(N)=O)C(c1ccccc1)c1ccccc1 [Compound 71, Ac-Ebw-Orn-Pro-cha-Trp-Phe-NH2] (Ac-[Dip][Orn]P[dCha]WF-NH2) | pure antagonists | 200 to 2000 nM |  |  | > 100000 nM |  | 
4 | CC(=O)N[C@@H](Cc1ccccc1)C(=O)N[C@@H](CCCN)C(=O)N1CC[C@H]1C(=O)N[C@H](CC1CCCCC1)C(=O)N[C@@H](Cc1c[nH]c2ccccc12)C(=O)N[C@@H](Cc1ccccc1)C(N)=O [Compound 83, Ac-Phe-Orn-Aze-cha-Trp-Phe-NH2] (Ac-F[Orn][Aze][dCha]WF-NH2) | pure antagonists | 20 to 50 nM |  |  | > 100000 nM |  | 
5 | CC(=O)N[C@@H](Cc1ccccc1)C(=O)N[C@@H](CCCN)C(=O)N1CCC[C@H]1C(=O)N[C@H](CC1CCCCC1)C(=O)N[C@@H](Cc1csc2ccccc12)C(=O)N[C@@H](Cc1ccccc1)C(N)=O [Compound 62, Ac-Phe-Orn-Pro-cha-Bta-Phe-NH2] (Ac-F[Orn]P[dCha][Bta]F-NH2) | pure antagonists | 20 to 50 nM |  |  | > 100000 nM |  | 
6 | CC(=O)N[C@@H](Cc1ccccc1)C(=O)N[C@@H](CCCN)C(=O)N1CCCC[C@H]1C(=O)N[C@H](CC1CCCCC1)C(=O)N[C@@H](Cc1c[nH]c2ccccc12)C(=O)N[C@@H](Cc1ccccc1)C(N)=O [Compound 55, Ac-Phe-Orn-Pip-cha-Trp-Phe-NH2] (Ac-F[Orn][Pip][dCha]WF-NH2) | pure antagonists | 20 to 50 nM |  |  | > 100000 nM |  | 
7 | CC(=O)N[C@@H](Cc1ccccc1)C(=O)N[C@H]1CCCNC(=O)[C@H](CCCNC(=N)N)NC(=O)[C@H](Cc2c[nH]c3ccccc23)NC(=O)[C@@H](CC2CCCCC2)NC(=O)[C@@H]2CCCN2C1=O [Compound 40, Ac-Phe-[Orn-Pro-cha-Trp-Arg], reference compound] |  |  |  | 94 % of 200 μM |  | 94% | 

Results, then the molecule that gave them:

Row | agonistic activity (in words) (human C5aR(CD88) [1]) | IC50 (human C5aR(CD88) [2]) | inhibitory activity (in words) (human C5aR(CD88) [2]) | Solubility in 20 mM HEPES pH 7.4 (% of 200 μM) [3] | EC50 (human C5aR(CD88) [1]) | solubility in aqueous HEPES buffer (pH 7.4) [3] | inhibitory activity (in words) (human C5aR(CD88) [2]; listed as Ac-Phe-[Orn-Pro-cha-Trp-Nle]) | Compound
8 | pure antagonists | 10 to 20 nM | noteworthy inhibitory activity | 45 % of 200 μM | > 1430 nM |  |  | CCCC[C@@H]1NC(=O)[C@H](Cc2c[nH]c3ccccc23)NC(=O)[C@@H](CC2CCCCC2)NC(=O)[C@@H]2CCCN2C(=O)[C@@H](NC(=O)[C@@H](N)Cc2ccccc2)CCCNC1=O [Compound 42, H-Phe-[Orn-Pro-cha-Trp-Nle]] (H-F[Orn]P[dCha]W[Nle]; lactam 2-C)
9 | pure antagonists | 50 to 200 nM | noteworthy inhibitory activity |  | > 1430 nM |  |  | CCCC[C@@H]1NC(=O)[C@H](Cc2c[nH]c3ccccc23)NC(=O)[C@@H](CC2CCCCC2)NC(=O)[C@@H]2CCCN2C(=O)[C@@H](NC(=O)[C@H](Cc2ccccc2)NC(=O)CON=CC(O)C(O)C(O)C(O)CO)CCCNC1=O (single isomer, unassigned) [Compound 3, HOCH2(CHOH)4—C═N—O—CH2—CO-Phe-[Orn-Pro-cha-Trp-Nle]]
10 | pure antagonists | 10 to 20 nM | noteworthy inhibitory activity |  | > 1430 nM |  |  | CCCC[C@@H]1NC(=O)[C@H](Cc2c[nH]c3ccccc23)NC(=O)[C@@H](CC2CCCCC2)NC(=O)[C@@H]2CCCN2C(=O)[C@@H](NC(=O)CCc2ccccc2)CCCNC1=O [Compound 41, Ph-CH2—CH2—CO-[Orn-Pro-cha-Trp-Nle]] (Hydrocinnamoyl-[Orn]P[dCha]W[Nle]; lactam 1-C)
11 |  |  |  | 84 % of 200 μM |  | 84% |  | CCCC[C@@H]1NC(=O)[C@H](Cc2c[nH]c3ccccc23)NC(=O)[C@@H](CC2CCCCC2)NC(=O)[C@@H]2CCCN2C(=O)[C@@H](NC(=O)[C@H](Cc2ccccc2)NC(=O)[C@H]2OC(OC)[C@H](NC(C)=O)[C@@H](O)[C@@H]2O)CCCNC1=O (stereo partly drawn) [Compound 4, X-Phe-[Orn-Pro-cha-Trp-Nle]; X = 2-acetamido-1-methyl-glucuronyl] (Ac-[X1]F[Orn]P[dCha]W[Nle]; lactam 3-C)
12 |  | 20 to 50 nM | without significant loss of activity | 22 % of 200 μM | > 1430 nM | 22% | noteworthy inhibitory activity | CCCC[C@@H]1NC(=O)[C@H](Cc2c[nH]c3ccccc23)NC(=O)[C@@H](CC2CCCCC2)NC(=O)[C@@H]2CCCN2C(=O)[C@@H](NC(=O)[C@H](Cc2ccccc2)NC(C)=O)CCCNC1=O [Compound 28, Ac-Phe-[Orn-Pro-cha-Trp-Nle]] (Ac-F[Orn]P[dCha]W[Nle]; lactam 2-C)
13 | pure antagonists | 20 to 50 nM |  |  | > 100000 nM |  |  | CC(=O)N[C@@H](Cc1ccccc1)C(=O)N[C@@H](CCCNC(=N)N)C(=O)N1CCC[C@H]1C(=O)N[C@H](CC1CCCCC1)C(=O)N[C@@H](Cc1c[nH]c2ccccc12)C(=O)N[C@@H](Cc1ccccc1)C(N)=O [Compound 88, Ac-Phe-Arg-Pro-cha-Trp-Phe-NH2] (Ac-FRP[dCha]WF-NH2)
14 | pure antagonists |  | noteworthy inhibitory activity | 93 % of 200 μM |  |  |  | CCCC[C@@H]1NC(=O)[C@H](Cc2c[nH]c3ccccc23)NC(=O)[C@@H](CC2CCCCC2)NC(=O)[C@@H]2CCCN2C(=O)[C@@H](NC(=O)[C@H](Cc2ccccc2)NC(=O)[C@H](CCCCN)NC(C)=O)CCCNC1=O [Compound 43, Ac-Lys-Phe-[Orn-Pro-cha-Trp-Nle]] (Ac-KF[Orn]P[dCha]W[Nle]; lactam 3-C)
